Experimental findings from publication PMC4116524, “A virtual screen identified C96 as a novel inhibitor of phosphatidylinositol 3-kinase that displays potent preclinical activity against multiple myeloma in vitro and in vivo” (Oncotarget, 2014) are described below.

Common to all, as to type: cell-based
Assay [1] has as its system IGF-1R phosphorylation in LP1 and JJN3 cells. Description: IGF-1-induced IGF-1R phosphorylation, immunoblotting. Conditions: 100 μM, 2 hrs, IGF-1 15 min. As for the experimental part:
(§1) To elucidate this specificity, we first evaluated its effects on IGF-1R because IGF-1R as a receptor tyrosine kinase activates PI3K in the presence of IGF-1. To exclude the potential effects of C96 on IGF-1 signaling, LP1 and JJN3 cells were starved overnight followed by C96 or S14161 treatment for 2 hrs, and IGF-1 stimulation for 15 min. As expected, IGF-1 triggered AKT phosphorylation but it was suppressed by both C96 and the proven PI3K inhibitor S14161 without affecting total AKT expression (Figure 3A). […] Next, we evaluated other kinases including non-receptor kinase c-Src and a PI3K parallel kinase ERK which transduces external cellular signals. Both LP1 and JJN3 cells were treated with C96 at increasing concentrations that inhibited AKT and mTOR activation (Figure 2C).
(§2) Figure 3 C96 inhibits AKT but not IGF-1R, ERK or c-Src kinase activation (A) LP1 and JJN3 cells were starved overnight, then treated with 100 (μM of C96 or S14161 for 2 hrs, followed by IGF-1 (100 ng/mL) for 15 min. After incubation, cells were harvested and the expression of p-AKT, p-IGF-1R, total AKT (T-AKT), and IGF-1R proteins were detected by immunoblotting. (B) LP1 and JJN3 were treated with C96 at indicated concentrations for 24 hrs followed by immunoblotting assay for the expression of p-Src, c-Src, p-ERK, and ERK. GAPDH was used as a loading control. […]
On the technique in general: In western blotting, separated proteins are transferred to a membrane and probed.

For assay [2], the system named is ERK phosphorylation in LP1 and JJN3 cells. Description: ERK phosphorylation, immunoblotting. Conditions: increasing concentrations, 24 hrs. As for the experimental part:
as §1, §2

For assay [3], the system named is cleavage of PARP and caspase-3 in LP1, OPM2 and JJN3 cells. Description: Apoptotic signaling, immunoblotting of PARP and caspase-3. Conditions: 0-20 μM or 10 μM for 3-12 hrs, time- and concentration-dependent. An excerpt: Because PI3K/AKT signaling is critical in modulating MM cell proliferation and survival, while interference with this pathway will lead to cell death and regression of MM tumors, we next asked whether C96 could induce MM cell apoptosis and inhibited MM cell proliferation. […] Next, we measured the induction of apoptosis by C96 in MM cell lines. Apoptotic cells are featured with inside-out expression of phosphatidylserine which is specifically identified by Annexin V, a cellular protein in the annexin group. Therefore, to measure the apoptotic level, C96-treated cells were stained with Annexin V-FITC and propidium iodide followed by flow cytometry analysis. […] For example, less apoptotic cells were induced by C96 in KMS11 cells in the Annexin V staining assay (Figure 5), the cleavage level of PARP in this cell line was also lower than that seen in other cell lines, such as OPM2 (Figure 6A). We next examined the apoptotic signaling pathway in the treatment with C96 with increasing exposure periods or concentrations. […]
Cells were treated with or without C96 for 24 hrs before being applied to lysate preparation in a lysis buffer (50 mM Tris-HCI, pH 7.4, 1% NP-40, 0.5% Na-deoxycholate, and 0.1% SDS, 150 mM NaCl, 2 mM EDTA, 2 mM Na3VO4, and 5 mM NaF). […] All immunoblotting signals were further analyzed with Quality One Quality One software (Bio-Rad, Berkeley, CA, USA).

Assay [4] deals with OPM2 cells. Description: Cell migration analysis by the transwell assay. Conditions: 6 hrs. The protocol: Next, we evaluated the effects of C96 on MM cell growth by measuring viable cells after starvation/IGF-1 stimulation in the presence of C96. As shown in Supplemental Figure 2A, IGF-1 stimulated MM cell growth, but it was suppressed by C96. We also examined the effects of C96 on MM cell migration upon IGF-1 stimulation.
This assay was performed as described previously. Briefly, MM cells OPM2, JJN3 and LP1 were serum starved overnight and then re-suspended in 70 μL of IMDM medium/0.5% fetal calf serum with or without C96. These cells were then loaded onto polycarbonate membranes (8-μm pore size) separating 2 chambers of a transwell (Corning Costar, Cambridge, MA). Medium/0.1% FCS (500 μL) containing agonist IGF-1 was added to the lower chamber of the Transwell cluster plates. After 6 hrs, cells migrating into the lower chamber were counted using a hemacytometer.
Supplementary Figure S2: C96 inhibits MM cell proliferation and migration in the presence of IGF-1. […] Cells were then incubated for another 24 hr, cell number was analyzed using MTT staining. […] Cells were loaded onto the upper chamber of a transwell, and the lower chamber was filled with IMDM containing agonist IGF-1.After 6 hrs, cells migrating into the lower chamber were counted using a hemacytometer. […]

As to `O=C1NC(=O)C(=CC=Cc2cccs2)C(=O)N1` [C96, 5-(3-(2-thienyl)-2-propen-1-ylidene)-2,4,6(1H,3H,5H)-pyrimidinetrione], in assay [1], the “IGF-1R phosphorylation induced by IGF-1” value is “not affected”. In addition, the “phosphorylation level of ERK” value in assay [2] is “did not decrease”. The “cleavage of PARP and caspase-3” value in assay [3] was “induced cleavage of PARP and caspase-3”. In addition, the “migration through 8-micrometer transwell membrane in the presence of IGF-1” value in assay [4] is “partly suppressed”.
